# In patent US20060193916A1, “Formulations of peptides for periodontal and dental treatments” (Acologix, Inc., priority 2005, published 2006):
# Assays:
# [1] = tested on: human dental pulp cells; details: cited from earlier work
# [2] = tested on: osteoblastic cells; details: comparable to growth factors such as BMP and IGF-1; cited from earlier work
# [3] = tested on: dentin and pulp tissue of teeth with deep class V preparations; assay: Indirect pulp capping study in dogs (deep class V preparations in maxillary teeth)
# Procedure: Deep class V preparations were made without penetrating the pulp cavity on the buccal (labial) side of 8 maxillary teeth (2 premolars and 1 molar on each side of the oral cavity in one canine) in 10-month old Beagle dogs. A radiograph was taken to confirm location of the pulp cavity. The cavities (defects) were drilled perpendicular to the tooth axis (pulp cavity). […] The solution was left in the dry cavity for 2 minutes after which the base of the cavity was covered with Vitrebond and the teeth were sealed with composite.
# The solution was left in the dry cavity for 2 minutes after which the cavities were filled with cotton and sealed with Cavit. The dogs in Treatment group 2 were re-treated 3× a week for 1 week (the teeth on the left side) or for 2 weeks (the teeth on the right side). […] The solution was left in the dry cavity for 2 minutes after which the cavities were filled with cotton and sealed with Cavit.
# The teeth in treatment group 3 were used as negative (saline) or positive (Dycal) controls. Two of the 4 teeth per animal that were used as negative controls were treated with 2 uL saline. The solution was left in the dry cavity for 2 minutes after which the base of the cavity was covered with Vitrebond and the teeth were sealed with composite. The other 2 teeth used as negative control were treated for 15 sec with Scotchbond Etchant (Single Bond adhesive system), washed with water, air dried and treated with 2 uL saline. The solution was left in the dry cavity for 2 minutes after which the base of the cavity was covered with Single Bond, cured with light and the teeth were sealed with composite. The 2 teeth per animal in treatment group 3 that were used as a positive control were treated with Dycal and sealed with composite using standard operating procedures.
# After the specimens were received, the specimens were processed, decalcified and embedded in paraffin. The maxilla specimens were stained with Haematoxylin and eosin (H&E) for new dentin formation evaluation. For immunohistochemistry evaluations, the sections were stained with TUNEL assay for evaluation of apoptosis (score 0-4), and CD45 antibody for inflammation evaluations.
# Histopathological assessment of the stained section was done without knowledge of treatment group. Qualitative observations included the analysis of the tooth and underlying bone, including any soft tissue, which may have come into contact with the test material formulation. Cellular infiltrates (score 0-16) and inflammatory responses (score 0-4) at the repair site and the soft tissues were also evaluated.
# [4] = tested on: bone fracture; details: rats; local injection near the fracture site; cited from earlier work
# [5] = tested on: alveolar bone extraction socket
# Source text: One mandibular premolar per side was extracted. The intra-socket septae in the extraction socket were removed and the wound margins adapted.
# Treatment Group I (10 dogs-5 per each time point 3 days and 28 days): • a.
# Treatment Group 2 (10 dogs-5 per each time point 3 days and 28 days): • a.
# Treatment Group 3 (6 dogs-3 per each time point 3 days and 28 days): • a. Right side: create gingival flap around #407; extract #407 (section with 7011); remove intra-socket septa with 5511; radiograph; measure socket depth; soak a collagen sponge in BMP2; apply collagen sponge to socket; close gingival flap with 4-0 maxon. • b. Left side; create gingival flap around #307; extract #307 (section with 701 l); remove intra-socket septa with 551 l; radiograph; measure socket depth; soak a collagen sponge in 100 μl of saline, apply collagen sponge to socket; close gingival flap with 4-0 maxon.
# After the specimens were received, the specimens were processed, decalcified and embedded in paraffin. The mandible specimens were stained with Toluidine blue for osteoblast evaluations.
# Histopathological assessment of the stained section was done without knowledge of treatment group. Qualitative observations included the analysis of the underlying bone, including any soft tissue, which may have come into contact with the test material formulation. Fibrous tissue encapsulation, cellular infiltrates and inflammatory responses at the repair site and the soft tissues were also evaluated.
# Static histomorphometric analysis was performed on sections stained with toluidine blue stain to determine the percent area of bone in-growth present within the samples using an OsteoMeasure® image analysis system, and associate software (version 4.00c). The amount and quality of the newly formed bone was scored for 0-4, respectively, and evaluated collectively. Tissue reaction such as inflammation and presence of fibrous tissue were also evaluated using the respective scoring system.
# [6] = tested on: primary mesenchimal stem cell culture; details: in vitro; cited from earlier work
# [7] = tested on: bone formation; details: mice; cited from earlier work
sequence,measurement,setting,value
TDLQERGDNDISPFSGDGQPFKD [AC-100],proliferation and differentiation of human dental pulp cells,[1],potent activities on proliferation but not differentiation
same,proliferation and differentiation of osteoblastic cells,[2],potent activities on proliferation and differentiation of osteoblastic cells
same,"maximum stimulation of new dentin formation, relative to saline","[3]; 200 ug, 3 times per week for one week, day 28",8 times
same,new dentin formation compared with Dycal,"[3]; 28 days post surgery, highest two doses of AC-100 (20 ug and 200 ug), depending on the application schedule",comparable to or better than Dycal
same,new dentin formation,"[3]; 28 days post surgery, versus saline negative control, single and multiple application schedules",dose dependent stimulation of new dentin formation
same,number of apoptotic cells in the pulp,"[3]; both 3 and 28 days post surgery, almost all doses applied",dose dependently decreased the number of apoptotic cells
same,"new dentin formation, multiple versus single application schedule",[3]; day 28,worked significantly better than the single application one
same,"new dentin formation, single application","[3]; highest dose of AC-100, single application, comparable to Dycal",marginal activity
same,"new dentin formation, sealing with Single Bond+composite versus Vitrebond+Composite","[3]; single application schedule, almost all doses of AC-100",worked markedly better than sealing with Vitrebond+Composite
same,apoptotic and necrotic cell death in the pulp cavities (study summary),[3]; summary of Example 1,almost complete reduction of inflammatory reactions as well as apoptotic or necrotic cell death
same,inflammatory reactions in the pulp cavities (study summary),[3]; summary of Example 1,almost complete reduction of inflammatory reactions
same,regeneration of new dentin in the defects (study summary),[3]; summary of Example 1,superior regeneration of new dentin tissue
same,pulp tissue reaction at the highest dose,"[3]; three days post surgery, 200 ug",completely abolishing the pulp reaction
same,pulp inflammation,"[3]; three days post surgery, almost all doses applied",completely abolishing the pulp inflammation
same,pulp tissue reaction (inflammatory and fibrosis response),"[3]; three days post surgery, sealed with Single Bond or Vitrebond",dose dependent inhibition of the tissue reaction
same,bone fracture healing,[4],stimulates bone fracture healing
same,presence of connective tissue and provisional matrix in the defects,[5]; day 3 after the extraction,dose dependent increase
same,tissue reaction in the extraction sockets,[5]; day 3 after the extraction,dose dependent increase in tissue reaction
same,percentage of connective tissue in the defects versus saline,[5]; day 28,comparable
same,quality of the new bone formed in the defect,[5]; day 28,dose dependently increases the quality of the new bone
same,rate with which the defect is filled with new bone,[5]; day 28,dose dependently decreases the rate
same,inflammatory response versus saline control,"[5]; dog, in vivo",no significant difference
same,"bone growth, multiple re-applications versus single application",[5]; re-applied directly in the extraction sockets,not as effective as the single application regimen
same,bone growth (bone ingrowth),"[5]; single application at surgery, 1 mg and 10 mg on a collagen sponge, 28 days",caused stimulation of bone growth
same,proliferation and differentiation of the cells to osteoblasts,[6],dose dependently induce proliferation and differentiation
same,in vitro and in vivo bone formation activities,[7],comparable to the same activities of fibroblast growth factor (FGF)
